Earlier results as cited in patent publication US7189798B2, “Composition containing mixture of dihydroxybutane sulfonates” (Eastman Chemical Company, priority 2001, dated 2007).

Conditions: in vivo

**Q.** With OC[C@H]1O[C@@H]2O[C@H]3[C@H](O)[C@@H](O)[C@@H](O[C@H]4[C@H](O)[C@@H](O)[C@@H](O[C@H]5[C@H](O)[C@@H](O)[C@@H](O[C@H]6[C@H](O)[C@@H](O)[C@@H](O[C@H]7[C@H](O)[C@@H](O)[C@@H](O[C@H]8[C@H](O)[C@@H](O)[C@@H](O[C@H]1[C@H](O)[C@H]2O)O[C@@H]8CO)O[C@@H]7CO)O[C@@H]6CO)O[C@@H]5CO)O[C@@H]4CO)O[C@@H]3CO [β-CD, β-cyclodextrin] as the compound, how does the “Renal and liver damage after parenteral administration” value read?
**A.** The value was “cause renal and liver damage”.
